Measurements published in patent US9944634B2, “Pyrazolopyridine derivatives as TTX-S blockers” (RaQualia Pharma Inc., priority 2012, dated 2018).
Read-outs that look alike come from different tables or passages of the source.

Columns and labels:
Assay type in all cases: cell-based
human Nav1.7 (hSCN9A) = target: T1, human Nav1.7 (hSCN9A) (Homo sapiens, UniProt Q15858); assay: Electrophysiology assay (whole cell patch clamp), human Nav1.7; conditions: dissociation constant for the inactivated state, CHO cells, read-out: activity (Ki) against Nav1.7
T1 construct: expressed in transfected cells; host or cells: CHO cells
Method: (§1) Electrophysiology Assay for Nays
(§2) Whole cell patch clamp recording is used to assess the efficacy or selectivity of Na channel blocker on human Nav1.3 (hSCN3A) expressing HEK293 cells or human Nav1.7 (hSCN9A) expressing CHO cells. Human Nav1.3 expressing HEK293 cells are grown in growth media which contain: DMEM, 10% heat-inactivated FBS (Hyclone Laboratories Inc), 100 microgram/mL penicillin/100U/mL streptomycin, 150 microgram/mL Zeocin, and 3 microgram/mL Geneticin. Human Nav1.7 expressing CHO cells are grown in growth media which contain: HAMF-12, 9% heat-inactivated FBS (Hyclone Laboratories Inc), and 100 microgram/mL penicillin/100 U/mL streptomycin, and 100 microgram/mL hygromycin. […]
(§3) The normalized steady-state inactivation curve is constructed using 2 sec (for vehicle) or 60 sec (for drugs) conditioning pulse to different potentials followed immediately by the test pulse to −10 mV. […] The affinity of drugs to resting state of Na channels (Kresting or Kr) is assessed by 30 msec test pulse from a negative holding potential of -120 or −130 mV, where virtually all channels are in the resting state. Kr value is calculated by a conventional 1:1 binding model: Kresting(Kr)={[drug]Imax,drug/(Imax,control−Imax,drug)} [Math.2] • where Kresting(=Kr) is a dissociation constant for the resting state and [drug] is compound concentration. […]

human Nav1.5 channels = target: T2, human Nav1.5 channels (Homo sapiens, UniProt Q14524); assay: FRET assay, human Nav1.5 channels; conditions: read-out: activity against Nav1.5 (IC50)
T2 construct: expressed in transfected cells; host or cells: HEK293 cells
Method: (§4) The inhibitory activities of compounds against voltage gated sodium channels are determined by methodology well known in the art.
(§5) The ability of the pyrazolopyridine derivatives of the formula (I) to inhibit the Nav1.3, Nav1.7 and Nav1.5 channels is measured by Fluorescence Resonance Energy Transfer (FRET) assay and electrophysiology assay described below.
(§6) This screen is used to determine the effects of compounds on human Nav1.3, human Nav1.7, and human Nav1.5 channels, utilising electrical field stimulation (EFS) system in 96-well plate format on FDSS (Hamamatsu Photonics) platform. The change of membrane potential is monitored with FRET dye pair, oxonol (DiSBAC2(3)) and coumarin (CC2-DMPE).
Each HEK293 cells expressing human Nav1.3 channels and HEK293 cells expressing human Nav1.5 channels are grown in T225 flasks, in a 5% CO2 humidified incubator to about 80% confluence. Media composition consists of Dulbecco's Modified Eagle Medium (high glucose), 10% FCS, 100 units/mL penicillin, 100 microgram/mL streptomycin and 500 microgram/mL Geneticine. […]
(§7) The data are analyzed and reported as normalized ratios of intensities measured at […]. […]
(§8) This analysis is performed using a computerized specific program designed for FDSS generated data. Fluorescence ratio values are plotted using XLfit to determine an IC50 value for each compound.

human Nav1.7 channels = target: T3, human Nav1.7 channels (Homo sapiens, UniProt Q15858); assay: FRET assay, human Nav1.7 channels
T3 construct: expressed in transfected cells; host or cells: CHO cells
Method: as §4, §5, §6
CHO cells expressing human Nav1.7 channels are grown in T225 flasks, in a 5% CO2 humidified incubator to about 80% confluence. Media composition consists of HAM/F12 with Glutamax I, 10% FCS, 100 units/mL penicillin and 100 microgram/mL hygromycin. […]
as §7, §8

human Nav1.3 (hSCN3A) = target: T4, human Nav1.3 (hSCN3A) (Homo sapiens, UniProt Q9NY46); assay: Electrophysiology assay (whole cell patch clamp), human Nav1.3; conditions: dissociation constant for the inactivated state, HEK293 cells, read-out: activity (Ki) against Nav1.3
T4 construct: expressed in transfected cells; host or cells: HEK293 cells
Method: as §1, §2, §3

T3 sequence (Q15858 whole entry): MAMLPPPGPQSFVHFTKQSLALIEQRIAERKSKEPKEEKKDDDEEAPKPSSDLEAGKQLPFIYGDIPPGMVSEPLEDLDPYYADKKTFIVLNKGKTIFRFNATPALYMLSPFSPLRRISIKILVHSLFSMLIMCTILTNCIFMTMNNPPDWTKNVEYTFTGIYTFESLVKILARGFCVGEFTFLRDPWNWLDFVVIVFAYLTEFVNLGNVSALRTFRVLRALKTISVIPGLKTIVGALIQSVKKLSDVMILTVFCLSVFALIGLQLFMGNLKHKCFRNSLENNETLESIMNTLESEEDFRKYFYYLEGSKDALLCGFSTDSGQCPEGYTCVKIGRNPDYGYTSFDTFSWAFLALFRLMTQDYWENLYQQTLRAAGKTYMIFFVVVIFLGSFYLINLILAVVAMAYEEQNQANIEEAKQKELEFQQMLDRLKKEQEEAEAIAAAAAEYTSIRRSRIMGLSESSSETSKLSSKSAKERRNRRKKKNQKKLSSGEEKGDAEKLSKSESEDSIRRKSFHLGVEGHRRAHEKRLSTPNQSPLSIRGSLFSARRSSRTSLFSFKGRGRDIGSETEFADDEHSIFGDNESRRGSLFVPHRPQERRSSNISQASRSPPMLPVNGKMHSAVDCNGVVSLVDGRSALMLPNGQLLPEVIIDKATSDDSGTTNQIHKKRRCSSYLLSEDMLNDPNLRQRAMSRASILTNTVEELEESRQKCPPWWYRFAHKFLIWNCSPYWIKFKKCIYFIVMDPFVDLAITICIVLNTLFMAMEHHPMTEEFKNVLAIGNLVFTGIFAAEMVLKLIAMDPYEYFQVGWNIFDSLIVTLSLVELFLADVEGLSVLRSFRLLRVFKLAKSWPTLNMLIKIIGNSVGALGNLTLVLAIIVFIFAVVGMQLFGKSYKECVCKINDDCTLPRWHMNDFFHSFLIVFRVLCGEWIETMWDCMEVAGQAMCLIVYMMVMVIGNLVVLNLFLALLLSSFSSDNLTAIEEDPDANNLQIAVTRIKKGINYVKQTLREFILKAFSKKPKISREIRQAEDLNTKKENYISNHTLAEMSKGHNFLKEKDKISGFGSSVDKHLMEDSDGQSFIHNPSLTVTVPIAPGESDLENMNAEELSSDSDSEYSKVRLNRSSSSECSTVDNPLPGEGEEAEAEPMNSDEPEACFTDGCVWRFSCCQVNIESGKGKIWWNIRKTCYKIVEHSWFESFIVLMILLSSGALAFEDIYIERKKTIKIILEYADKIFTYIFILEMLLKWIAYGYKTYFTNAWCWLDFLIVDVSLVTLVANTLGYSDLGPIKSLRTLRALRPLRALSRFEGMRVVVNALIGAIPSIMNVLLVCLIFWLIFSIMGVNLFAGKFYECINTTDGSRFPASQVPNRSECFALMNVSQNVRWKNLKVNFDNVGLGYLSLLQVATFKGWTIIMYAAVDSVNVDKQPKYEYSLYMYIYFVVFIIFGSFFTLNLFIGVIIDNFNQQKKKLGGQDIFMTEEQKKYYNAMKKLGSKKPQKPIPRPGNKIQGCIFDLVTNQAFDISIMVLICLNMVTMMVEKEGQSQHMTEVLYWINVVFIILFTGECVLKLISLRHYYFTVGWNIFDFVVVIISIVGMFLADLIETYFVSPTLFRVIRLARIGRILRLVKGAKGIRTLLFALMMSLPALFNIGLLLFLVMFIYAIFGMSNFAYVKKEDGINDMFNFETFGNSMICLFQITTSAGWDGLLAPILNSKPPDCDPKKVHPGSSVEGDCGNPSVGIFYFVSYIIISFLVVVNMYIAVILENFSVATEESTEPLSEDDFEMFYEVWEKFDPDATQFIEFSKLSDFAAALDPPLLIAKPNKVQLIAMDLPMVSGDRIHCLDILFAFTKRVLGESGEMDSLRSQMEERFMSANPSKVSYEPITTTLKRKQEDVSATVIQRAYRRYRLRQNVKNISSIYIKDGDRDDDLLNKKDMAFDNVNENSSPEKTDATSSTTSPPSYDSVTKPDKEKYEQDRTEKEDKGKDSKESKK
T4 sequence (Q9NY46 whole entry): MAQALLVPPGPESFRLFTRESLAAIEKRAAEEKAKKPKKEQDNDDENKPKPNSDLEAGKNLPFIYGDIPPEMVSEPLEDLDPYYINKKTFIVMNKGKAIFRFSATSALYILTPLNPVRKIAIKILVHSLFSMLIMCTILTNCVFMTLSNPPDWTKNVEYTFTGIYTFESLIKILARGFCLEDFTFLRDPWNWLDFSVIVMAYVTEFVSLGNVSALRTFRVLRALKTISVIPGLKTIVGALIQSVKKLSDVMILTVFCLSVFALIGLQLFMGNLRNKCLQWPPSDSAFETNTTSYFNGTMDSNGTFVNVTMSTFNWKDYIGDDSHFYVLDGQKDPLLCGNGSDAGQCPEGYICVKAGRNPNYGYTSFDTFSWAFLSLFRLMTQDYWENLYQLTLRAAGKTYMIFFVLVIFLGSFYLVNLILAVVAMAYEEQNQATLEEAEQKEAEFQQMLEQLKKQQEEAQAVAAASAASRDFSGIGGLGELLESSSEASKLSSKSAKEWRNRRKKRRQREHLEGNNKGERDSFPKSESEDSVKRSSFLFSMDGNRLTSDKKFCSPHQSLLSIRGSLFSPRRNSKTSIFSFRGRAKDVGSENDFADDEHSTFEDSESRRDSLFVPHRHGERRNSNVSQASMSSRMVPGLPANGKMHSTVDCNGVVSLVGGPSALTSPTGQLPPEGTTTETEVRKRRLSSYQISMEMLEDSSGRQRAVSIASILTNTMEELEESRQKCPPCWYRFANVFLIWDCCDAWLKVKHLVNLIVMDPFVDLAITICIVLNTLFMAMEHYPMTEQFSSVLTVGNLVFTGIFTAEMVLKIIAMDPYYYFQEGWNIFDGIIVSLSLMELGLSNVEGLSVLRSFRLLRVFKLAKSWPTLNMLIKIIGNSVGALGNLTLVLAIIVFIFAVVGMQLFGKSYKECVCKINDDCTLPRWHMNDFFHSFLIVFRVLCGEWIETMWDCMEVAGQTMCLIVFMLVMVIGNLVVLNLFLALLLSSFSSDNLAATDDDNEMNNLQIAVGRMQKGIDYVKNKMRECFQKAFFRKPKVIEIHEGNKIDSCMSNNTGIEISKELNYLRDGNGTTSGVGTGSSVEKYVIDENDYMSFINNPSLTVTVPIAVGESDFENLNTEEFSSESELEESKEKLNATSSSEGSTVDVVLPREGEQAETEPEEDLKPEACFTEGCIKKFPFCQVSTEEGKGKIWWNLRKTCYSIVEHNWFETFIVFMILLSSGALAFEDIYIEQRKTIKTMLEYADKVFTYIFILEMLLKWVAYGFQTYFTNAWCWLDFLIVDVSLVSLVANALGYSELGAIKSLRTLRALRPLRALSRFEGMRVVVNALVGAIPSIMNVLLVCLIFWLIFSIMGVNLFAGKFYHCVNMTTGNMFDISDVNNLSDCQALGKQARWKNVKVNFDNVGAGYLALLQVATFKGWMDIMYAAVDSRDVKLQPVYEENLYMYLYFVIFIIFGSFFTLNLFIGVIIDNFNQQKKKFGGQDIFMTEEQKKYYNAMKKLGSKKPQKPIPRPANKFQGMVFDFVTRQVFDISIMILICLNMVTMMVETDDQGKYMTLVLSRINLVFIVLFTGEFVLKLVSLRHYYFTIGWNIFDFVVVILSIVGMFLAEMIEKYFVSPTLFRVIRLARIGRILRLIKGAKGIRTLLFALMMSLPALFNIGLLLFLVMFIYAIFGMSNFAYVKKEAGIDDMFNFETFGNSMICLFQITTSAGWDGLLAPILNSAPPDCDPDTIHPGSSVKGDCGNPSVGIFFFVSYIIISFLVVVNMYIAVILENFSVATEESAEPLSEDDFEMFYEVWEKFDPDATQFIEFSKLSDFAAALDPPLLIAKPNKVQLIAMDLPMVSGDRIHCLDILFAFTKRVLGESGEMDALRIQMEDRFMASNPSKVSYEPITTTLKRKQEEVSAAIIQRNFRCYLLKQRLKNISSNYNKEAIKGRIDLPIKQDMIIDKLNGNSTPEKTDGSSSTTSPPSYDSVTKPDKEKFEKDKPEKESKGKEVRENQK
T1 sequence (Q15858 whole entry): as the sequence (Q15858 whole entry) above

Ki (human Nav1.7 (hSCN9A)): 340 nM | IC50 (human Nav1.7 channels; bound holds for Nav1.7 and/or Nav1.3, not stated which, read-out: IC50 against Nav1.7 and/or Nav1.3): < 1000 nM | IC50 (human Nav1.7 channels; read-out: activity against Nav1.7 (IC50)): 380 nM | Ki (human Nav1.3 (hSCN3A)): 570 nM
SMILES: Cc1cc(Cn2cc3c(NC(=O)C(C)(C)O)nccc3n2)cnc1OCC(F)(F)F [Example 2, 2-hydroxy-2-methyl-N-(2-((5-methyl-6-(2,2,2-trifluoroethoxy)pyridin-3-yl)methyl)-2H-pyrazolo[4,3-c]pyridin-4-yl)propanamide]
IC50 (human Nav1.5 channels): > 30000 nM
